Assay results as given in doi:10.1101/2024.10.14.618121v2 (biorxiv, 2025).

What was measured:
DENV3 NS5 MTase [1] = biological target: T1, DENV3 NS5 MTase (dengue virus type 3, UniProt V9TQY8); experiment: fluorescence polarization displacement of F-GTP; format: binding
T1 sequence (V9TQY8 2491-2753): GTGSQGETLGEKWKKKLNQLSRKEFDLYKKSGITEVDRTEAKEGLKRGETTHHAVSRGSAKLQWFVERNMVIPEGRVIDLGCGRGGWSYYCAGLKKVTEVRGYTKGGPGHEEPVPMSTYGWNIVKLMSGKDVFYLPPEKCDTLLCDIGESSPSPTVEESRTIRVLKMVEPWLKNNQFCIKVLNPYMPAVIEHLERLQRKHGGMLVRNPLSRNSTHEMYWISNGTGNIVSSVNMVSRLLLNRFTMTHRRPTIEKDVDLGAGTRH

DENV3 NS5 MTase [2] = biological target: T1, DENV3 NS5 MTase; experiment: fluorescence polarization displacement of F-GTP; format: binding; remark: listed apart in the source

Q: What does the source list for O=c1c(O)c(-c2ccc(O)cc2)oc2c(O)c(O)cc(O)c12 [HC, herbacetin]?
A: Ki (DENV3 NS5 MTase [1]): ~430 nM; IC50 (DENV3 NS5 MTase [2]): 770 ± 10 nM
